Reference: ChEMBL document CHEMBL5523746, “Discovery of Novel Peptide Antagonists Targeting GPR55 for Liver Inflammation and Fibrosis” (2024)
Active and inactive are the calls of the source. The calls are words filed in the database; no cut-off is given here. Bridge positions count the residues as written; N and C are the ends. Peptide text beside a SMILES is read from it.

Tests used:
[1] = test system: Mus musculus; experiment: In vivo anti-fibrotic activity against CCl4-induced liver fibrosis C57BL/6J mouse model assessed as decrease in pro-apoptotic protein BIM level at 300 microg/kg once daily for 3 weeks by Western blot analysis; type: functional, organism-based; conditions: dose 300.0 µg/kg
[2] = test system: Mus musculus; experiment: Induction of fatty acid beta-oxidation related gene expression in methionine and choline-deficient (MCD) diet-induced liver fibrosis C57BL/6J mouse model assessed as increase in MCAD mRNA level at 150 to 300 microg/kg once daily for 3 weeks by qPCR analysis; type: functional, organism-based; conditions: dose 150-300 µg/kg
[3] = test system: Mus musculus; experiment: Induction of fatty acid beta-oxidation related gene expression in methionine and choline-deficient (MCD) diet-induced liver fibrosis C57BL/6J mouse model assessed as increase in LCAD mRNA level at 150 to 300 microg/kg once daily for 3 weeks by qPCR analysis; type: functional, organism-based; conditions: dose 150-300 µg/kg
[4] = test system: Mus musculus; experiment: In vivo anti-fibrotic activity against methionine and choline-deficient (MCD) diet-induced liver fibrosis C57BL/6J mouse model assessed as reduction in inflammation by measuring decrease in Ly6G inflammation marker at 150 to 300 microg/kg once daily for 3 weeks by IHC staining based assay; type: functional, organism-based; conditions: dose 150-300 µg/kg
[5] = test system: Mus musculus; experiment: Induction of fatty acid beta-oxidation related gene expression in methionine and choline-deficient (MCD) diet-induced liver fibrosis C57BL/6J mouse model assessed as increase in PGC1A mRNA level at 150 to 300 microg/kg once daily for 3 weeks by qPCR analysis; type: functional, organism-based; conditions: dose 150-300 µg/kg
[6] = test system: Mus musculus; experiment: In vivo anti-fibrotic activity against CCl4-induced liver fibrosis C57BL/6J mouse model assessed as liver function by measuring decrease in serum hydroxyproline (HYP) at 150 to 300 microg/kg once daily for 3 weeks by bio-chemical analysis; type: functional, organism-based; conditions: dose 150-300 µg/kg
[7] = test system: Mus musculus; experiment: In vivo anti-fibrotic activity against methionine and choline-deficient (MCD) diet-induced liver fibrosis C57BL/6J mouse model assessed as reduction in oxidative stress by measuring increase in catalase at 150 to 300 microg/kg once daily for 3 weeks by enzyme activity assay; type: functional, organism-based; conditions: dose 150-300 µg/kg
[8] = test system: Mus musculus; experiment: In vivo anti-fibrotic activity against CCl4-induced liver fibrosis C57BL/6J mouse model assessed as reduction in ROS treated once daily for 3 weeks by RT-qPCR analysis; type: functional, organism-based; conditions: dose 150-300 µg/kg
[9] = test system: Mus musculus; experiment: In vivo anti-fibrotic activity against CCl4-induced liver fibrosis C57BL/6J mouse model assessed as reduction in oxidative stress by measuring decrease in lipid oxidation product MDA at 150 to 300 microg/kg once daily for 3 weeks by enzyme activity assay; type: functional, organism-based; conditions: dose 150-300 µg/kg
[10] = test system: Mus musculus; experiment: In vivo anti-fibrotic activity against CCl4-induced liver fibrosis C57BL/6J mouse model assessed as liver function by measuring decrease in serum amino-transferase (ALT) at 150 to 300 microg/kg once daily for 3 weeks by bio-chemical analysis; type: functional, organism-based; conditions: dose 150-300 µg/kg
[11] = test system: Mus musculus; experiment: In vivo anti-fibrotic activity against CCl4-induced liver fibrosis C57BL/6J mouse model assessed as reduction in Acta2 mRNA level at 150 to 300 microg/kg once daily for 3 weeks by RT-qPCR analysis; type: functional, organism-based; conditions: dose 150-300 µg/kg
[12] = test system: Mus musculus; experiment: Reduction in fatty acid synthesis related gene expression in methionine and choline-deficient (MCD) diet-induced liver fibrosis C57BL/6J mouse model assessed as reduction in FAS mRNA level at 150 to 300 microg/kg once daily for 3 weeks by qPCR analysis; type: functional, organism-based; conditions: dose 150-300 µg/kg
[13] = test system: Mus musculus; experiment: In vivo anti-fibrotic activity against methionine and choline-deficient (MCD) diet-induced liver fibrosis C57BL/6J mouse model assessed as decrease in inflammatory infiltration and collagen deposition at 150 to 300 microg/kg once daily for 3 weeks by ORO staining based assay; type: functional, organism-based; conditions: dose 150-300 µg/kg
[14] = test system: Mus musculus; experiment: In vivo anti-fibrotic activity against CCl4-induced liver fibrosis C57BL/6J mouse model assessed as liver function by measuring decrease in amino-transferase (ALT) at 150 to 300 microg/kg once daily for 3 weeks by Western blot analysis; type: functional, organism-based; conditions: dose 150-300 µg/kg
[15] = test system: Mus musculus; experiment: In vivo anti-fibrotic activity against methionine and choline-deficient (MCD) diet-induced liver fibrosis C57BL/6J mouse model assessed as reduction in oxidative stress by measuring increase in superoxide dismutase at 150 to 300 microg/kg once daily for 3 weeks by enzyme activity assay; type: functional, organism-based; conditions: dose 150-300 µg/kg
[16] = test system: Mus musculus; experiment: In vivo anti-fibrotic activity against methionine and choline-deficient (MCD) diet-induced liver fibrosis C57BL/6J mouse model assessed as decrease in inflammatory infiltration and collagen deposition at 150 to 300 microg/kg once daily for 3 weeks by H and E staining based assay; type: functional, organism-based; conditions: dose 150-300 µg/kg
[17] = test system: LX-2; experiment: Anti-fibrotic activity in human LX2 cells assessed as reduction in […] expression by measuring relative inhibition rate measured after 24 hrs incubation by Western blot analysis relative to control; type: functional; set-up: concentration or dose not given beside the values
[18] = test system: Mus musculus; experiment: In vivo anti-fibrotic activity against CCl4-induced liver fibrosis C57BL/6J mouse model assessed as reduction in hepatocyte apoptosis by measuring increase in BAX protein in cytoplasm at 300 microg/kg once daily for 3 weeks; type: functional, organism-based; conditions: dose 300.0 µg/kg
[19] = test system: Mus musculus; experiment: In vivo anti-fibrotic activity against methionine and choline-deficient (MCD) diet-induced liver fibrosis C57BL/6J mouse model assessed as decrease in inflammatory infiltration and collagen deposition at 150 to 300 microg/kg once daily for 3 weeks by Sirius Red staining based assay; type: functional, organism-based; conditions: dose 150-300 µg/kg
[20] = test system: Mus musculus; experiment: In vivo anti-fibrotic activity against CCl4-induced liver fibrosis C57BL/6J mouse model assessed as decrease in pro-apoptotic protein CHOP level at 300 microg/kg once daily for 3 weeks by Western blot analysis; type: functional, organism-based; conditions: dose 300.0 µg/kg
[21] = test system: Mus musculus; experiment: In vivo anti-fibrotic activity against CCl4-induced liver fibrosis C57BL/6J mouse model assessed as decrease in alpha-SMA at 150 to 300 microg/kg once daily for 3 weeks by IHC staining based assay; type: functional, organism-based; conditions: dose 150-300 µg/kg
[22] = test system: Mus musculus; experiment: In vivo anti-fibrotic activity against CCl4-induced liver fibrosis C57BL/6J mouse model assessed as decrease in pro-apoptotic protein caspase-8 level at 300 microg/kg once daily for 3 weeks by Western blot analysis; type: functional, organism-based; conditions: dose 300.0 µg/kg
[23] = test system: Mus musculus; experiment: Induction of fatty acid beta-oxidation related gene expression in methionine and choline-deficient (MCD) diet-induced liver fibrosis C57BL/6J mouse model assessed as increase in PPARalpha mRNA level at 150 to 300 microg/kg once daily for 3 weeks by qPCR analysis; type: functional, organism-based; conditions: dose 150-300 µg/kg
[24] = test system: Mus musculus; experiment: In vivo anti-fibrotic activity against methionine and choline-deficient (MCD) diet-induced liver fibrosis C57BL/6J mouse model assessed as reduction in hepatocyte apoptosis at 150 to 300 microg/kg once daily for 3 weeks by TUNEL assay; type: functional, organism-based; conditions: dose 150-300 µg/kg
[25] = test system: Mus musculus; experiment: Reduction in fatty acid synthesis related gene expression in methionine and choline-deficient (MCD) diet-induced liver C57BL/6J fibrosis mouse model assessed as reduction in FATP1 mRNA level at 150 to 300 microg/kg once daily for 3 weeks by qPCR analysis; type: functional, organism-based; conditions: dose 150-300 µg/kg
[26] = test system: Mus musculus; experiment: In vivo anti-fibrotic activity against methionine and choline-deficient (MCD) diet-induced liver fibrosis C57BL/6J mouse model assessed as reduction in oxidative stress by measuring decrease in lipid oxidation product MDA at 150 to 300 microg/kg once daily for 3 weeks by enzyme activity assay; type: functional, organism-based; conditions: dose 150-300 µg/kg
[27] = test system: Mus musculus; experiment: Reduction in fatty acid synthesis related gene expression in methionine and choline-deficient (MCD) diet-induced liver fibrosis C57BL/6J mouse model assessed as reduction in SCD1 mRNA level at 150 to 300 microg/kg once daily for 3 weeks by qPCR analysis; type: functional, organism-based; conditions: dose 150-300 µg/kg
[28] = test system: Mus musculus; experiment: In vivo anti-fibrotic activity against CCl4-induced liver fibrosis C57BL/6J mouse model assessed as increase in anti-apoptotic protein BCL2 level at 300 microg/kg once daily for 3 weeks by Western blot analysis; type: functional, organism-based; conditions: dose 300.0 µg/kg

CC[C@H](C)[C@@H]1NC(=O)[C@H]([C@@H](C)O)NC(=O)[C@@H]2CCCN2C(=O)[C@H](CO)NC(=O)[C@H](CC(N)=O)NC(=O)[C@H](CCCCN)NC(=O)[C@H](CCCCN)NC(=O)[C@@H](N)CSSC[C@@H](C(=O)O)NC1=O (H-CKKNSPTIC-OH; disulfide 1-9)
Activity [1]: Active | Activity [2]: Active | Activity [3]: Active | Activity [4]: Active | Activity [5]: Active | Activity [6]: Active | Activity [7]: Active | Activity [8]: Active | Activity [9]: Active | Activity [10]: Active | Activity [11]: Active | Activity [12]: Active | Activity [13]: Active | Activity [14]: Active | Activity [15]: Active | Activity [16]: Active | Activity [17]: 47% | Activity [18]: Active | Activity [19]: Active | Activity [20]: Active | Activity [21]: Active | Activity [22]: Active | Activity [23]: Active | Activity [24]: Active | Activity [25]: Active | Activity [26]: Active | Activity [27]: Active | Activity [28]: Active
